Results on 20 compounds are retold here after patent publication US20230113037A1 (Bayer Aktiengesellschaft, priority 2019, published 2023).

Test [1] addresses T1, AHR (Homo sapiens, UniProt P35869).
T1 construct: U87 MG glioblastoma cells (ATCC #HTB-14) endogenously expressing AHR; endogenous in cells; host or cells: U87 MG glioblastoma cells (ATCC #HTB-14)
T1 sequence (P35869 11-848): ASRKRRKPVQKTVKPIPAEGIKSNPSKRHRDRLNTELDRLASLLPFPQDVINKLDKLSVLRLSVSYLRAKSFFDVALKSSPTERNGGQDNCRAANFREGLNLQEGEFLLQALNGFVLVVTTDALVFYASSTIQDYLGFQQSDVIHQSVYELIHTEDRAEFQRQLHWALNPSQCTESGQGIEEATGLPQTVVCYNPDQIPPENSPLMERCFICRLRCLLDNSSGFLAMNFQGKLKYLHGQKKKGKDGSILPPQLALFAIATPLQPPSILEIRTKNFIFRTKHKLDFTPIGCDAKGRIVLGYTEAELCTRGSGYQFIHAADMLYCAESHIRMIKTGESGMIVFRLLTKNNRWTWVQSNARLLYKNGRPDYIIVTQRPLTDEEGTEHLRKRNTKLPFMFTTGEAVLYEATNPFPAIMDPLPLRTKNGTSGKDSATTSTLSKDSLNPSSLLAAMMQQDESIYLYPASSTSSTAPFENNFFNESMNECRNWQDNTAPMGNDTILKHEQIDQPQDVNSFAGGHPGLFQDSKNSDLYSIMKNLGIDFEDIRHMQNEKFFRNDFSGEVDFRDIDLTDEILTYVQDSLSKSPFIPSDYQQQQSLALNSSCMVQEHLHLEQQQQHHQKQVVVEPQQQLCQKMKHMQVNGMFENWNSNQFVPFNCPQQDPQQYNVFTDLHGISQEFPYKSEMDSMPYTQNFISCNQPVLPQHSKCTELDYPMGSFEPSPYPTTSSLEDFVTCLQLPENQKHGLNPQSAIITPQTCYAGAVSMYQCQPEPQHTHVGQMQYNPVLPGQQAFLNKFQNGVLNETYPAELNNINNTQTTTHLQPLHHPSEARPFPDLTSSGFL
Nature of the test: In vitro assay 1: antagonism in human cell line (AHR transactivation, firefly luciferase reporter, kynurenic acid prestimulated). It counts as cell-based. The note with it: AHR Antagonism Human IC50 [M]. Summed up: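 Antagonism is measured against kynurenic acid prestimulation in U87 MG glioblastoma cells carrying stable DRE-luciferase and Renilla reporters. Positive inhibition control: 150 μM kynurenic acid with 5 μM staurosporine. Values are normalized to controls; repeats are averaged or given as medians.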

Test [2] concerns the target T2, AHR (Mus musculus, UniProt P30561).
T2 sequence (P30561 1-848 P471L/N533S/M589L): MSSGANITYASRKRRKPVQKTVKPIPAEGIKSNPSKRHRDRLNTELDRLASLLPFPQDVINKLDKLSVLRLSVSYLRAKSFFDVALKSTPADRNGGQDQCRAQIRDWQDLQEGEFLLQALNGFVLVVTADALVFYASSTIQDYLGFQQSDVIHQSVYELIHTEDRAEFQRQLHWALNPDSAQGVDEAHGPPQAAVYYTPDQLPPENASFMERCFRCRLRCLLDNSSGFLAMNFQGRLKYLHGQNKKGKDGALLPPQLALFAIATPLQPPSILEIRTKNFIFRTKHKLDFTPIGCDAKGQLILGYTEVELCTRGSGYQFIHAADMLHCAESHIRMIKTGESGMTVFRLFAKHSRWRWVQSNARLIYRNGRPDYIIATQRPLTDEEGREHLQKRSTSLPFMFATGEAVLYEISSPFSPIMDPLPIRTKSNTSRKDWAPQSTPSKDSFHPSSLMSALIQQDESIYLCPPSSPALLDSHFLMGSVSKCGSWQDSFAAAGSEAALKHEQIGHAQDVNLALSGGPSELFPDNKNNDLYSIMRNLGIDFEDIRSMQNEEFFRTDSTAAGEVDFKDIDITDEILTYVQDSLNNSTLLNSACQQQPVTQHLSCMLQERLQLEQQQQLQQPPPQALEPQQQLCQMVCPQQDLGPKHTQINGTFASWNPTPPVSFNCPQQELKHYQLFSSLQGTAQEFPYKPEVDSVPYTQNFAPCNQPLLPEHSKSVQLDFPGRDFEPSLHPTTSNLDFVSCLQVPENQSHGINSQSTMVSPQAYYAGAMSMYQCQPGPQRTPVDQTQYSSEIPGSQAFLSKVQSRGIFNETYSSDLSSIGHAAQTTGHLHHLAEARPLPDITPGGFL
Nature of the test: In vitro assay 3: antagonism in mouse cell line (AHR transactivation, firefly luciferase reporter, kynurenic acid prestimulated). The following applies: 200 μM kynurenic acid, 20 hours, read-out: AHR Antagonism Mouse IC50. Type of test: cell-based. Summed up: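 Luminescence from an AHR-dependent DRE-luciferase reporter, stably integrated in mouse cells, quantifies blockade of kynurenic acid-driven activation. Unstimulated cells mark maximal inhibition; normalization uses both control types, and multiply tested compounds carry mean or median values.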
Background: A reporter such as luciferase makes a cellular process visible.

Setting [3] is: Hepa 1c1c7 cells, firefly luciferase reporter.

The IC50 is the concentration that gives 50% inhibition.

Where two headings read alike, the source gives them in different places.

For the compound `COc1ccc(-c2nc3c4cccc(S(C)(=N)=O)c4nc(N[C@@H]4CCCCNC4=O)n3n2)cc1` (mixture of isomers) [Example 853, (3R)-3-{[7-(S-methanesulfonimidoyl)-2-(4-methoxyphenyl)[1,2,4]triazolo[1,5-c]quinazolin-5-yl]amino}azepan-2-one], the IC50 in test [1] (firefly luciferase reporter) is 2.04e-09 M; in test [2] (setting [3]) it was 0.0686 µM.
Regarding `Cn1cc(-c2nc3c4ccccc4nc(NC4CCCNC4=O)n3n2)cn1` (single isomer, unassigned) [Example 20, 3-{[2-(1-methyl-1H-pyrazol-4-yl)[1,2,4]triazolo[1,5-c]quinazolin-5-yl]amino}piperidin-2-one], the IC50 in test [1] was determined as 1.24e-06 M; in test [2] (mouse Hepa 1c1c7 cells), 2.21 µM.
For the compound `CC[C@@H](Nc1nc2c(C(F)(F)F)cccc2c2nc(-c3ccnn3C)nn12)C(N)=O` [Example 806, (2R)-2-{[2-(1-methyl-1H-pyrazol-5-yl)-7-(trifluoromethyl)[1,2,4]triazolo[1,5-c]quinazolin-5-yl]amino}butanamide], the IC50 in test [1] (firefly luciferase reporter) came to 3.49e-09 M; in test [2] (setting [3]), 0.00114 µM.
Regarding `CCCNC(=O)[C@H](C)Nc1nc2c(Br)cccc2c2nc(-c3cnn(C)c3)nn12` [Example 795, N^2-[7-bromo-2-(1-methyl-1H-pyrazol-4-yl)[1,2,4]triazolo[1,5-c]quinazolin-5-yl]-N-propyl-L-alaninamide], the IC50 in test [1] (firefly luciferase reporter) stood at 2.46e-07 M; in test [2] (setting [3]), 3.13 µM.
With `O=C1NCCCC[C@H]1Nc1nc2ccccc2c2nc(-c3cccc(Cl)c3Cl)nn12` [Example 196, (3R)-3-{[2-(2,3-dichlorophenyl)[1,2,4]triazolo[1,5-c]quinazolin-5-yl]amino}azepan-2-one], the IC50 was 4.09e-09 M in test [1] and 0.00111 µM in test [2] (mouse Hepa 1c1c7 cells).
For `O=C1NCCCC[C@H]1Nc1nc2c(C(F)(F)F)cccc2c2nc(-c3cnn(CC4CC4)c3)nn12` [Example 742, (3R)-3-({2-[1-(cyclopropylmethyl)-1H-pyrazol-4-yl]-7-(trifluoromethyl)[1,2,4]triazolo[1,5-c]quinazolin-5-yl}amino)azepan-2-one], the IC50 in test [1] was found to be 8.31e-10 M; in test [2] (mouse Hepa 1c1c7 cells), 0.0019 µM.
For the compound `Cn1ccc(-c2nc3c4ccccc4nc(N[C@@H]4CCCCNC4=O)n3n2)n1` [Example 63, (3R)-3-{[2-(1-methyl-1H-pyrazol-3-yl)[1,2,4]triazolo[1,5-c]quinazolin-5-yl]amino}azepan-2-one], the half-maximal inhibitory concentration (IC50) in test [1] stood at 2.87e-08 M; in test [2] (mouse Hepa 1c1c7 cells), 0.0419 µM.
As to `Cc1ccccc1-c1nc2c3ccccc3nc(NC3CCNC3=O)n2n1` (single isomer, unassigned) [Example 50, 3-{[2-(2-methylphenyl)[1,2,4]triazolo[1,5-c]quinazolin-5-yl]amino}pyrrolidin-2-one], the IC50 came to 1.06e-08 M in test [1] and 0.0204 µM in test [2] (mouse Hepa 1c1c7 cells).
Consider `Cc1ccccc1-c1nc2c3ccccc3nc(NC3CCCNC3=O)n2n1` (single isomer, unassigned) [Example 49, 3-{[2-(2-methylphenyl)[1,2,4]triazolo[1,5-c]quinazolin-5-yl]amino}piperidin-2-one], for which the 50% inhibitory concentration (IC50) in test [1] was found to be 8.5e-08 M; in test [2] (mouse Hepa 1c1c7 cells) it was 0.0261 µM.
Taken in the same sequence, the figures for `COc1cccc(-c2nc3c4ccccc4nc(NC4CCNC4=O)n3n2)c1` (single isomer, unassigned) [Example 120, 3-{[2-(3-methoxyphenyl)[1,2,4]triazolo[1,5-c]quinazolin-5-yl]amino}pyrrolidin-2-one] were 6.02e-08 M and 0.0561 µM.
For `O=C1NCC[C@H]1Nc1nc2ccccc2c2nc(-c3cc(C(F)(F)F)ccn3)nn12` [Example 366, (3R)-3-({2-[4-(trifluoromethyl)pyridin-2-yl][1,2,4]triazolo[1,5-c]quinazolin-5-yl}amino)pyrrolidin-2-one] the same measures were over 2e-05 M and 0.593 µM.
For `Cn1cc(-c2nc3c4ccccc4nc(NC4CNCCNC4=O)n3n2)cn1` (racemic) [Example 22, 6-{[2-(1-methyl-1H-pyrazol-4-yl)[1,2,4]triazolo[1,5-c]quinazolin-5-yl]amino}-1,4-diazepan-5-one] the same measures were 5.33e-06 M and 2.03 µM.
Regarding `COc1cccc2c1nc(N[C@@H]1CCCCNC1=O)n1nc(-c3cn(C)nn3)nc21` [Example 756, (3R)-3-{[7-methoxy-2-(1-methyl-1H-1,2,3-triazol-4-yl)[1,2,4]triazolo[1,5-c]quinazolin-5-yl]amino}azepan-2-one], the half-inhibitory concentration (IC50) in test [1] was 4.49e-06 M; in test [2] (mouse Hepa 1c1c7 cells), 11.7 µM.
Taken in the same sequence, the figures for `CCOc1ccc(-c2nc3c4ccccc4nc(N[C@@H]4CCCCNC4=O)n3n2)cc1` [Example 616, (3R)-3-{[2-(4-ethoxyphenyl)[1,2,4]triazolo[1,5-c]quinazolin-5-yl]amino}azepan-2-one] were 7.6e-10 M and 0.00107 µM.
Regarding `O=C1NCCCC[C@H]1Nc1nc2ccccc2c2nc(-c3ccc(O)cc3F)nn12` [Example 634, (3R)-3-{[2-(2-fluoro-4-hydroxyphenyl)[1,2,4]triazolo[1,5-c]quinazolin-5-yl]amino}azepan-2-one], the IC50 in test [1] is 9.09e-08 M; in test [2] (mouse Hepa 1c1c7 cells), 0.206 µM.
Turning to `COc1ccc(-c2nc3c4cccc(Br)c4nc(N[C@H](C)C(=O)NCCN4CCCCC4)n3n2)cc1` [Example 895, N^2-[7-bromo-2-(4-methoxyphenyl)[1,2,4]triazolo[1,5-c]quinazolin-5-yl]-N-[2-(piperidin-1-yl)ethyl]-D-alaninamide], the IC50 in test [1] (firefly luciferase reporter) stood at 1.18e-08 M; in test [2] (setting [3]) it was 0.0173 µM.
On to `CNCCNC(=O)[C@@H](C)Nc1nc2c(Br)cccc2c2nc(-c3cnn(C)c3)nn12` [Example 991, N^2-[7-bromo-2-(1-methyl-1H-pyrazol-4-yl)[1,2,4]triazolo[1,5-c]quinazolin-5-yl]-N-[2-(methylamino)ethyl]-D-alaninamide-hydrogen chloride (1/1)], for which the IC50 in test [1] (firefly luciferase reporter) was 3.13e-08 M; in test [2] (setting [3]), 0.0766 µM.
With `Cn1cc(-c2nc3c4ccccc4nc(NC4CCNC4=O)n3n2)cn1` (single isomer, unassigned) [Example 18, 3-{[2-(1-methyl-1H-pyrazol-4-yl)[1,2,4]triazolo[1,5-c]quinazolin-5-yl]amino}pyrrolidin-2-one], the IC50 in test [1] amounted to 1.11e-06 M; in test [2] (mouse Hepa 1c1c7 cells), 2.22 µM.
As for `COc1ccc(-c2nc3c4ccc(C#N)cc4nc(N[C@@H]4CCCCNC4=O)n3n2)cc1` [Example 400, 2-(4-Methoxyphenyl)-5-{[(3R)-2-oxoazepan-3-yl]amino}[1,2,4]triazolo[1,5-c]quinazoline-8-carbonitrile], the IC50 in test [1] came out at 4.16e-08 M; in test [2] (mouse Hepa 1c1c7 cells), 0.119 µM.
With `COc1ccc(-c2nc3c4ccccc4nc(N[C@H](C)C(=O)NCCN(C)C)n3n2)cc1` [Example 787, N-[2-(dimethylamino)ethyl]-N^2-[2-(4-methoxyphenyl)[1,2,4]triazolo[1,5-c]quinazolin-5-yl]-D-alaninamide], the IC50 in test [1] (firefly luciferase reporter) is 2.26e-08 M; in test [2] (setting [3]), 0.0382 µM.
